# Source: PubChem BioAssay (NCI)
#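 48-hour exposure; five concentrations; linearly interpolated endpoints. TGI marks complete inhibition of growth.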
# Key:
# Assay in all cases: NCI anticancer screen, dose series, 48 h
# HL-60(TB) leukemia = test system: HL-60(TB) leukemia
# M14 melanoma = test system: M14 melanoma
# CCRF-CEM leukemia = test system: CCRF-CEM leukemia
# SNB-78 CNS = test system: SNB-78 CNS
# UACC-257 melanoma = test system: UACC-257 melanoma
# SK-MEL-28 melanoma = test system: SK-MEL-28 melanoma
# TK-10 renal = test system: TK-10 renal
# OVCAR-8 ovarian = test system: OVCAR-8 ovarian
# HOP-18 NSCLC = test system: HOP-18 NSCLC
# DMS 273 small cell lung = test system: DMS 273 small cell lung
# SW-620 colon = test system: SW-620 colon
# M19-MEL melanoma = test system: M19-MEL melanoma
# NCI-H23 lung = test system: NCI-H23 lung
# SK-OV-3 ovarian = test system: SK-OV-3 ovarian
# A549 NSCLC = test system: A549 NSCLC
# UACC-62 melanoma = test system: UACC-62 melanoma
# HT29 colon = test system: HT29 colon
# SK-MEL-5 melanoma = test system: SK-MEL-5 melanoma
# U251 CNS = test system: U251 CNS
# MOLT-4 leukemia = test system: MOLT-4 leukemia
# K-562 leukemia = test system: K-562 leukemia
# NCI-H522 lung = test system: NCI-H522 lung
# KM20L2 colon = test system: KM20L2 colon
# NCI-H226 lung = test system: NCI-H226 lung
# EKVX NSCLC = test system: EKVX NSCLC
# COLO 205 colon = test system: COLO 205 colon
# SF-295 CNS = test system: SF-295 CNS
# RPMI-8226 leukemia = test system: RPMI-8226 leukemia
# SNB-75 CNS = test system: SNB-75 CNS
# UO-31 renal = test system: UO-31 renal
# OVCAR-4 ovarian = test system: OVCAR-4 ovarian
# SF-268 CNS = test system: SF-268 CNS
# LOX IMVI melanoma = test system: LOX IMVI melanoma
# XF 498 CNS = test system: XF 498 CNS
# NCI-H460 lung = test system: NCI-H460 lung
# SK-MEL-2 melanoma = test system: SK-MEL-2 melanoma
# SR leukemia = test system: SR leukemia
# SNB-19 CNS = test system: SNB-19 CNS
# LXFL 529 NSCLC = test system: LXFL 529 NSCLC
# HCT-116 colon = test system: HCT-116 colon
# MALME-3M melanoma = test system: MALME-3M melanoma
# HOP-62 NSCLC = test system: HOP-62 NSCLC
# ACHN renal = test system: ACHN renal
# HCT-15 colon = test system: HCT-15 colon
# KM12 colon = test system: KM12 colon
# RXF 393 renal = test system: RXF 393 renal
# 786-0 renal = test system: 786-0 renal
# SN12C renal = test system: SN12C renal
# DMS 114 small cell lung = test system: DMS 114 small cell lung
# RXF-631 renal = test system: RXF-631 renal
# A498 renal = test system: A498 renal
# HOP-92 NSCLC = test system: HOP-92 NSCLC
# IGROV1 ovarian = test system: IGROV1 ovarian
# OVCAR-5 ovarian = test system: OVCAR-5 ovarian
smiles,measurement,setting,value
CC(=O)O[C@]12CCCC1C1(O)C(O)CCCC12 (some centres undefined),TGI,HL-60(TB) leukemia,> 100 µM
same,TGI,M14 melanoma,> 100 µM
same,TGI,CCRF-CEM leukemia,> 100 µM
same,TGI,SNB-78 CNS,> 100 µM
same,TGI,UACC-257 melanoma,> 100 µM
same,TGI,SK-MEL-28 melanoma,> 100 µM
same,TGI,TK-10 renal,> 100 µM
same,TGI,OVCAR-8 ovarian,> 100 µM
same,TGI,HOP-18 NSCLC,> 100 µM
same,TGI,DMS 273 small cell lung,> 100 µM
same,TGI,SW-620 colon,> 100 µM
same,TGI,M19-MEL melanoma,> 100 µM
same,TGI,NCI-H23 lung,> 100 µM
same,TGI,SK-OV-3 ovarian,> 100 µM
same,TGI,A549 NSCLC,> 100 µM
same,TGI,UACC-62 melanoma,> 100 µM
same,TGI,HT29 colon,> 100 µM
same,TGI,SK-MEL-5 melanoma,> 100 µM
same,TGI,U251 CNS,> 100 µM
same,TGI,MOLT-4 leukemia,> 100 µM
same,TGI,K-562 leukemia,> 100 µM
same,TGI,NCI-H522 lung,> 100 µM
same,TGI,KM20L2 colon,> 100 µM
same,TGI,NCI-H226 lung,> 100 µM
same,TGI,EKVX NSCLC,> 100 µM
same,TGI,COLO 205 colon,> 100 µM
same,TGI,SF-295 CNS,> 100 µM
same,TGI,RPMI-8226 leukemia,> 100 µM
same,TGI,SNB-75 CNS,> 100 µM
same,TGI,UO-31 renal,> 100 µM
same,TGI,OVCAR-4 ovarian,> 100 µM
same,TGI,SF-268 CNS,> 100 µM
same,TGI,LOX IMVI melanoma,> 100 µM
same,TGI,XF 498 CNS,> 100 µM
same,TGI,NCI-H460 lung,> 100 µM
same,TGI,SK-MEL-2 melanoma,> 100 µM
same,TGI,SR leukemia,> 100 µM
same,TGI,SNB-19 CNS,> 100 µM
same,TGI,LXFL 529 NSCLC,> 100 µM
same,TGI,HCT-116 colon,> 100 µM
same,TGI,MALME-3M melanoma,> 100 µM
same,TGI,HOP-62 NSCLC,> 100 µM
same,TGI,ACHN renal,> 100 µM
same,TGI,HCT-15 colon,> 100 µM
same,TGI,KM12 colon,> 100 µM
same,TGI,RXF 393 renal,> 100 µM
same,TGI,786-0 renal,> 100 µM
same,TGI,SN12C renal,> 100 µM
same,TGI,DMS 114 small cell lung,> 100 µM
CC(=O)O[C@H]1CCC(C)=CCC[C@@]2(C)C(CC[C@@H]2[C@@H](C)/C=C/C(C)C)c2ccc(cc2C(=O)O)C1 (some centres undefined),TGI,HL-60(TB) leukemia,3.86 µM
same,TGI,M14 melanoma,20.3 µM
same,TGI,CCRF-CEM leukemia,12.2 µM
same,TGI,SNB-78 CNS,10.1 µM
same,TGI,UACC-257 melanoma,14.8 µM
same,TGI,SK-MEL-28 melanoma,16.9 µM
same,TGI,TK-10 renal,13.7 µM
same,TGI,RXF-631 renal,24.5 µM
same,TGI,OVCAR-8 ovarian,14 µM
same,TGI,DMS 273 small cell lung,13.3 µM
same,TGI,M19-MEL melanoma,14 µM
same,TGI,NCI-H23 lung,6.63 µM
same,TGI,SK-OV-3 ovarian,13.8 µM
same,TGI,A498 renal,19.8 µM
same,TGI,UACC-62 melanoma,3.79 µM
same,TGI,HT29 colon,13.6 µM
same,TGI,U251 CNS,8.25 µM
same,TGI,MOLT-4 leukemia,4.79 µM
same,TGI,K-562 leukemia,11.9 µM
same,TGI,NCI-H522 lung,6.47 µM
same,TGI,KM20L2 colon,14.1 µM
same,TGI,HOP-92 NSCLC,13.3 µM
same,TGI,EKVX NSCLC,30.5 µM
same,TGI,SF-295 CNS,8.43 µM
same,TGI,UO-31 renal,9.82 µM
same,TGI,NCI-H460 lung,10.8 µM
same,TGI,SR leukemia,7.61 µM
same,TGI,SNB-19 CNS,13 µM
same,TGI,IGROV1 ovarian,8.53 µM
same,TGI,HCT-116 colon,11.9 µM
same,TGI,OVCAR-5 ovarian,8.43 µM
same,TGI,HOP-62 NSCLC,7.49 µM
same,TGI,ACHN renal,15.5 µM
same,TGI,KM12 colon,16.5 µM
same,TGI,RXF 393 renal,7.67 µM
